Results: patent US20100267629A1, “Enterostatin as Therapeutic Agent for Hypoglycemia” (Board of Supervisors of Louisiana State University and …, priority 2006, published 2010)
Like-named read-outs stand apart in the source and are kept apart here.

What was measured:
C57B1/6 male mice = assay: Blood glucose response to insulin; assay type: in vivo, mouse
Experimental: Animals: C57B1/6 male mice were purchased from The Jackson Laboratory (Bar Harbor, Me.) at 6 weeks of age. The mice were initially housed in groups of three in acrylic cages in a room with a 12-hour light/dark cycle and with controlled temperature (22 to 23° C.) and with free access to water. The mice were fed a high fat diet (4.78 kcal/g, 56% energy as fat; Research Diets Inc, Brunswick, N.J.). The composition of the diet has been previously described (15). Body weights were measured three time per week. At 8 weeks of age, the mice were switched to single housing.
Peptide Injections: Enterostatin was dissolved in 0.1 ml saline (0.9% NaCl w/v), and given as a single dose of either 5 μg or 25 μg/mouse. Either enterostatin or saline (control) was injected intraperitoneally. In the experiments involving insulin, insulin (0.75 mU/g body weight) or saline (0.1 ml/10 g body weight; control) was injected intraperitoneally.
Enterostatin Effect on Blood Glucose Response to Insulin. To test the effect of enterostatin on the blood glucose response to exogenous insulin, mice were fasted for 4 hours, and insulin (0.75 mU/gm body weight) or saline (0.1 ml/10 gm body weight) was injected intraperitoneally at time zero. Enterostatin (5 or 25 ug/mouse in 0.1 ml saline vehicle) or saline vehicle was also injected intraperitoneally (ip) at time zero. Blood samples were taken from the tail vein immediately before the injections, and then at 15, 30, 45 and 60 minutes afterwards. The samples were assayed for glucose on a glucometer (Ascencia Elite XL, Bayer, Pittsburgh, Pa.).

[1] = biological target: brain membrane preparation; details: low affinity binding; cited from earlier work
kappa-opioid receptors = kappa-opioid receptors (Homo sapiens, UniProt P41145); details: cited from earlier work
Sequence of kappa-opioid receptors (P41145 whole entry): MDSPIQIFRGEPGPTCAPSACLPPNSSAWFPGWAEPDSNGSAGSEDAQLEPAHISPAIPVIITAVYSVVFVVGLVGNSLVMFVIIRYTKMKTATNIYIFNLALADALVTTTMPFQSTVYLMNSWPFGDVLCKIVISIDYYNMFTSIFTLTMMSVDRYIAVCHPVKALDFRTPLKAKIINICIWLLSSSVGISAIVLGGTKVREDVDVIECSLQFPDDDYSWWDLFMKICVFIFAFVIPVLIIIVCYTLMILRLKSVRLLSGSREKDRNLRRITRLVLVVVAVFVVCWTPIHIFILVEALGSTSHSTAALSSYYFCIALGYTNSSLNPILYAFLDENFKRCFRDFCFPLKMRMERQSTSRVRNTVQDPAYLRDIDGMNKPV

[2] = indirect calorimetry; cited from earlier work
rats = details: cited from earlier work; for Duration of action on feeding: single injection
AMPK = assay: In vivo AMPK activity, Western blot of liver and hypothalamus; parameters: species or system mouse
Experimental: A separate set of mice (n=6/group) were fasted overnight (18 hours) before injection with either saline vehicle (0.1 ml) or enterostatin (5 or 25 ug/mouse) intraperitoneally. The mice were sacrificed by cervical dislocation either at 30 min (certain enterostatin-treated groups) or 60 min (both certain enterostatin- and vehicle-treated groups) after the injection. The tissues of liver and hypothalamus were rapidly dissected and frozen in liquid nitrogen. The tissues were stored at −80 C before processing for AMPK activity. For AMPK activity, the tissues were unfrozen, the cells lysed, and the cytosolic proteins subjected to Western blot analysis for AMPK and pAMPK activity.

[3] = biological target: T1, Neuropeptide Y1 receptors (Homo sapiens, UniProt P25929); details: cited from earlier work
T1 sequence (P25929 1-384): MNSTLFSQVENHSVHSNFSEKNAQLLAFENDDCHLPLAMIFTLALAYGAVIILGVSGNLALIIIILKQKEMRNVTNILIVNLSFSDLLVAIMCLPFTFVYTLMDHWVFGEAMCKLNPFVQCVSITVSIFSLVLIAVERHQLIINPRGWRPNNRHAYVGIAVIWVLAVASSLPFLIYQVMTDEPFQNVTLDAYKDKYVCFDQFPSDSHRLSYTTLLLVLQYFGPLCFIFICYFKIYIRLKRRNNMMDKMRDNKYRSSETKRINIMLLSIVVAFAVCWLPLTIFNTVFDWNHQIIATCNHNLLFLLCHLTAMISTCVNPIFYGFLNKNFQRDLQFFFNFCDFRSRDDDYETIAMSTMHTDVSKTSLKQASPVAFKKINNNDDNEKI

[4] = three-choice macronutrient diet

Substance: Enterostatin: aminoterminal pentapeptide of procolipase released when procolipase is converted into colipase (VPDPR; printed: Val-Pro-Asp-Pro-Arg)
- Blood glucose level versus zero-time level after insulin (C57B1/6 male mice; 5 μg/mouse ip, at 60 min): had not returned to zero-time levels
- Time for which blood glucose is increased after injection (C57B1/6 male mice; conclusion from insulin response test): ≥ 30 min
- Delay of initial fall in blood glucose in response to insulin (C57B1/6 male mice; higher dose (25 μg/mouse) ip): 30 min
- Blood glucose level versus zero-time level after insulin (C57B1/6 male mice; higher dose (25 μg/mouse) ip, 45 to 60 min): remained below the zero-time level
- Kd [1]: 230 nM
- Binding (kappa-opioid receptors): not to bind
- Fat oxidation [2]: enhance fat oxidation
- Duration of action on feeding (rats; rats adapted to ad-libitum feeding): up to 24 hours
- Duration of action on feeding (rats; rats adapted to six-hour feeding schedule): lasting up to six hours
- Carbohydrate or protein intake (rats; [4]): no effect
- Intake of the fat macronutrient (rats; [4]): reduced intake of the fat macronutrient
- Intake of HF and LF diet (rats; two-choice high-fat / low-fat diet): reduced only intake of the HF diet
- Hypothalamic pAMPK (AMPK; 5 or 25 μg/mouse ip): unaltered
- Total AMPK (AMPK; 5 or 25 μg/mouse ip): unaffected
- Liver pAMPK levels (AMPK; 30 and 60 min after ip injection, even at lower dose (5 μg/mouse)): reduced
- Binding [3]: not to bind
